The record followed here is US12390423B2 (priority 2019, dated 2025).

Series [1] can be described thus: Treatment model of diet-induced obesity (DIO) in mice: body and fat pad weights. The note with it: HFD mice, AvoB 100 mg/kg b.w. oral gavage twice weekly for 5 weeks, vs HFD-control. The series is classed as in vivo, C57BL/6J mice. As to the method: For the treatment study, twelve-week-old male C57BL/6J mice were purchased from Jackson Laboratory (Bar Harbor, ME) and allowed to acclimatize for 1 week. After acclimatization, mice received either a high-fat diet (HFD) (60% kcal from lard; Research Diet D12492; Research Diets, USA) or a standard diet (10-13% kcal from fat; Teklad 2014; Envigo, USA) for eight weeks. […] Animal weights were monitored twice weekly. At study completion, animals were euthanized (10-12 h into their dark cycle) via CO2 followed by exsanguination, after which tissue and blood was collected.

Series [2] can be described thus: Intraperitoneal glucose and insulin tolerance tests (GTT, ITT) and HOMA-IR in DIO mice. The series is classed as in vivo, C57BL/6J mice. The note with it: HFD mice, AvoB 100 mg/kg b.w. twice weekly. As to the method:
Intraperitoneal glucose and insulin tolerance tests (GTT and ITT) were performed 8 hours after food withdrawal. For GTT, a glucose dose of 1.5 g/kg was used for mice on both HFD and standard diet. For ITT, an insulin (Humulin, Eli Lilly, USA) dose of 1 U/kg and 0.25 U/kg was used for mice on HFD and standard diet, respectively. Blood glucose levels were determined at 0, 10, 20, 30, 60, and 90 minutes after glucose/insulin administration via tail bleed using the OneTouch Blood Ultra 2 glucose meters (LifeScan Europe, Switzerland).
The homeostasis model assessment was used to calculate the insulin resistance (HOMA-IR) index^60 using the values of fasting plasma glucose (FPG) and fasting plasma insulin (FPI) as follows: […]; HOMA-IR=FPGxFPI/22.5, with FPG expressed as mmol/L and FPI as mIU/L.

The nature of series [3]: Complete blood count and plasma FFA/TAG in DIO mice. In kind it is in vivo. As to the method:
Complete blood count with differential (CBC w/diff) analysis was done on 500 μL of whole blood by the animal health laboratory at the University of Guelph. Plasma insulin, FFAs, and triacylglycerols (TAGs) were measured using a rat/mouse insulin ELISA kit (Millipore, Rat/Mouse Insulin Detection kit), FFA fluorometric assay kit (Cayman, MI, USA), and the TAG colorimetric assay kit (Cayman, MI, USA), respectively. Manufacturer's protocols were followed for all kits.

For series [4], the system named is pyruvate dehydrogenase (PDH). The series is described as follows: Pyruvate dehydrogenase (PDH) activity assay, gastrocnemius muscle lysates of DIO mice. In kind it is in vivo, C57BL/6J mice. Particulars: ad libitum HFD mice, AvoB 100 mg/kg b.w. twice weekly, endpoint. The method, then:
After mice were euthanized, muscle tissues were freeze-clamped and flash-frozen in liquid nitrogen. The PDH activity from flash-frozen whole gastrocnemius muscle lysates was measured using a colorimetric microplate assay kit (ab109902, Abcam, Cambridge, MA, USA) following the manufacturer's protocol and as previously described (see reference number 12). Briefly, PDH proteins from whole gastrocnemius muscle lysates (lysed in the presence of 10 mM sodium fluoride (NaF) preserve the phosphorylated status of PDH or to determine native PDH activity as a result of HFD feeding) were immunocaptured on a microplate by loading equal amounts of protein for each sample. PDH activity was then determined spectrophotometrically by monitoring the reduction of NAD+ to NADH, coupled to the reduction of a reporter dye at an absorbance of 450 nm.

The test system of series [5] is C2C12 myotubes. The series is described as follows: High resolution respirometry in C2C12 myotubes. In kind it is cell-based, mouse. Particulars: 25 μM AvoB. The method, then: Cells treated with test compounds for 24 h were trypsinized, counted, and resuspended in phosphate buffer saline (PBS). High-resolution O2 consumption measurements were conducted in 2 ml of respiration medium (PBS, pH 7.5, stir speed 750 rpm) using the Oroboros Oxygraph-2k (Oroboros Instruments, Corp., Innsbruck, Austria) set to 37° C. with a gain of 2 in both chambers. Briefly, after the injection of 5 million treated INS-1 (832/13) cells or C2C12 myotubes per chamber, basal respiration was measured once steady-state respiratory flux was obtained; this represents coupled respiration fueled by available substrates from the incubation with test compounds. Uncoupled respiration was then measured following addition of the ATP synthase inhibitor oligomycin (0.25 μM). This was followed by measuring maximal respiratory rate by stepwise titration of carbonyl cyanide p-trifluoromethoxy phenyl hydrazone (FCCP; within 0.1-0.25 μM) in the presence of 1 mmol/L pyruvate. […] Data was recorded with DatLab software (Oroboros Instruments, Innsbruck, Austria), oxygen consumption at each step of the protocol was normalized to vehicle control and illustrated in histograms. For all HRR protocols, cell viability was determined after trypsinization and also after end of HRR runs via trypan blue cell staining and counting using a hemocytometer. […]

Series [6] concerns INS-1 (832/13) cells. The series can be described thus: Cytosolic calcium determination (fluo-3AM) in INS-1 (832/13) cells. In kind it is cell-based, rat. The note with it: 0.5 mM palmitate, non-stimulatory glucose, AvoB 25 μM, ETO 100 μM, TMB-8 10 μM. As to the method:
INS-1 (832/13) cells were treated as described for the FAO assays but also with metabolic modulators dichloroacetate (DCA) (1 mM) and trimetazidine (25 μM) as well as 10 μM endoplasmic reticulum calcium blocker 8-(N,N-Diethylamino)-octyl-3,4,5-trimethoxybenzoate HCl (TMB-8) (Sigma Aldrich) or 25 nM cyclosporin (Sigma Aldrich) in the presence of 0.5 mM palmitate/1 mM L-carnitine. Cytosolic calcium was measured in INS-1 (832/13) cells using fluo-3AM (Invitrogen, F1241) charged fluorescent dye that accumulates in the cytosol and emits green fluorescence after binding calcium ions. A stock solution of 10 mM fluo-3AM was diluted to 5 μM in fluo-3AM loading buffer (10 mM 4-(2-hydroxyethyl)-1-piperazineethanesulfonic acid (HEPES), 137 mM NaCl, […], 1 mM Na2HPO4, 5 mM glucose, and 0.5 mM MgCl2 (pH 7.4)]. After treatment, cells were incubated in fluo-3AM loading buffer for 30 min at 37° C. with gentle agitation after which cells were washed twice with PBS, trypsinized and collected for flow cytometry analysis. Cytosolic calcium was quantified by taking the mean green fluorescence values of live gated cells and normalizing to vehicle control.

Setting [7] is: ad libitum HFD mice, AvoB 100 mg/kg b.w. twice weekly, vs control-HFD, endpoint.

For avocatin B [AvoB], in series [1], the “Gonadal and mesenteric fat pad (GFP and MFP) weights” value was “reductions in both gonadal and mesenteric fat pad (GFP and MFP) weights”; the “Mouse weight at study completion” value is “weighed significantly less than HFD-control mice”. Further, in series [2], the HOMA-IR index result is “comparable to lean, STD mice”. Also, the “Glucose tolerance (GTT, AUC)” value in series [2] (vs HFD-control, i.p. glucose 1.5 g/kg) was “significantly improved glucose tolerance”. Further, in series [2] (vs HFD-control, i.p. insulin), the “Whole body insulin sensitivity (ITT, AUC)” value is “greater insulin sensitivity”. Also, the “Blood markers of toxicity (CBC w/diff)” value in series [3] (HFD mice, AvoB 100 mg/kg b.w. twice weekly for 5 weeks, study endpoint) is listed as “no effect on blood markers of toxicity”. In series [3] (setting [7]), the “Plasma free fatty acids (FFA)” value was “increased plasma levels of FFA” and the “Plasma triacylglycerols (TAG)” value is reported as “increased”. The “Native PDH activity in gastrocnemius muscle” value in series [4] is “restored to that of lean, STD mice”. Besides, in series [5] (0.25 mM palmitate 24 h, then 10 mM glucose 15 min), the “Glucose oxidation by HRR after 10 mM glucose (metabolic flexibility)” value is on record as “increased”. Moreover, the “Palmitate supported respiration (OCR, HRR)” value in series [5] (0.25 mM palmitate-BSA/1 mM L-carnitine, 24 h) is “inhibited palmitate supported basal and maximal-uncoupled respiration”. The “Cytosolic Ca2+ (Fluo-3AM)” value in series [6] is “able to reduce cytosolic Ca^2+”.
